Assay results published in ChEMBL document CHEMBL1201862, “PubChem BioAssay data set” (2004).
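Method: 48-hour compound exposure of cells in 96-well plates, five concentrations, linear interpolation of endpoints. GI50 = concentration required for 50% inhibition of growth.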 Calls of active or inactive are those of the source. Rule as the data show it: active = GI50 up to about 1.1 µM and inactive = higher.

Key:
Assay in all cases: inhibition of tumour cell growth, NCI panel, 48 h
DMS-114 = tested on: DMS-114
UO-31 = tested on: UO-31
SNB-78 = tested on: SNB-78
SF-539 = tested on: SF-539
OVCAR-5 = tested on: OVCAR-5
M19-MEL = tested on: M19-MEL
HOP-92 = tested on: HOP-92
NCI-H23 = tested on: NCI-H23
MOLT-4 = tested on: MOLT-4
OVCAR-4 = tested on: OVCAR-4
RXF 393 = tested on: RXF 393
SK-MEL-28 = tested on: SK-MEL-28
HT-29 = tested on: HT-29
786-0 = tested on: 786-0
NCI-H460 = tested on: NCI-H460
SNB-19 = tested on: SNB-19
SK-MEL-2 = tested on: SK-MEL-2
HL-60 = tested on: HL-60
M14 = tested on: M14
SK-MEL-5 = tested on: SK-MEL-5
IGROV-1 = tested on: IGROV-1
RPMI-8226 = tested on: RPMI-8226
CAKI-1 = tested on: CAKI-1
KM-20L2 = tested on: KM-20L2
SF-268 = tested on: SF-268
OVCAR-3 = tested on: OVCAR-3
UACC-257 = tested on: UACC-257
SK-OV-3 = tested on: SK-OV-3
ACHN = tested on: ACHN
U-251 = tested on: U-251
HCT-116 = tested on: HCT-116
HOP-62 = tested on: HOP-62
SF-295 = tested on: SF-295
NCI-H226 = tested on: NCI-H226
SR = tested on: SR
CCRF-CEM = tested on: CCRF-CEM
A498 = tested on: A498
TK-10 = tested on: TK-10
Malme-3M = tested on: Malme-3M
LOX IMVI = tested on: LOX IMVI
NCI-H522 = tested on: NCI-H522
HCC 2998 = tested on: HCC 2998
A549 = tested on: A549
EKVX = tested on: EKVX
SN12C = tested on: SN12C
COLO 205 = tested on: COLO 205
SW-620 = tested on: SW-620
LXFL 529 = tested on: LXFL 529
UACC-62 = tested on: UACC-62
K562 = tested on: K562
KM12 = tested on: KM12
DLD-1 = tested on: DLD-1
DMS-273 = tested on: DMS-273
HCT-15 = tested on: HCT-15
OVCAR-8 = tested on: OVCAR-8
XF498 = tested on: XF498
T47D = tested on: T47D
Hs-578T = tested on: Hs-578T
BT-549 = tested on: BT-549
DU-145 = tested on: DU-145
NCI/ADR-RES = tested on: NCI/ADR-RES
PC-3 = tested on: PC-3

COc1cc2cc3c4c(cc(OC)c(OC)c4c2cc1OC)CCN3C(=O)CCCC(=O)O
GI50 (DMS-114): > 100000 nM (inactive) | GI50 (UO-31): > 100000 nM (inactive) | GI50 (SNB-78): 48100 nM (inactive) | GI50 (SF-539): > 100000 nM (inactive) | GI50 (OVCAR-5): > 100000 nM (inactive) | GI50 (M19-MEL): > 100000 nM (inactive) | GI50 (HOP-92): > 100000 nM (inactive) | GI50 (NCI-H23): > 100000 nM (inactive) | GI50 (MOLT-4): > 100000 nM (inactive) | GI50 (OVCAR-4): 34800 nM (inactive) | GI50 (RXF 393): > 100000 nM (inactive) | GI50 (SK-MEL-28): > 100000 nM (inactive) | GI50 (HT-29): > 100000 nM (inactive) | GI50 (786-0): > 100000 nM (inactive) | GI50 (NCI-H460): > 100000 nM (inactive) | GI50 (SNB-19): > 100000 nM (inactive) | GI50 (SK-MEL-2): > 100000 nM (inactive) | GI50 (HL-60): > 100000 nM (inactive) | GI50 (M14): > 100000 nM (inactive) | GI50 (SK-MEL-5): > 100000 nM (inactive) | GI50 (IGROV-1): > 100000 nM (inactive) | GI50 (RPMI-8226): > 100000 nM (inactive) | GI50 (CAKI-1): > 100000 nM (inactive) | GI50 (KM-20L2): > 100000 nM (inactive) | GI50 (SF-268): > 100000 nM (inactive) | GI50 (OVCAR-3): > 100000 nM (inactive) | GI50 (UACC-257): > 100000 nM (inactive) | GI50 (SK-OV-3): > 100000 nM (inactive) | GI50 (ACHN): > 100000 nM (inactive) | GI50 (U-251): > 100000 nM (inactive) | GI50 (HCT-116): > 100000 nM (inactive) | GI50 (HOP-62): > 100000 nM (inactive) | GI50 (SF-295): > 100000 nM (inactive) | GI50 (NCI-H226): > 100000 nM (inactive) | GI50 (SR): > 100000 nM (inactive) | GI50 (CCRF-CEM): > 100000 nM (inactive) | GI50 (A498): > 100000 nM (inactive) | GI50 (TK-10): > 100000 nM (inactive) | GI50 (Malme-3M): > 100000 nM (inactive) | GI50 (LOX IMVI): > 100000 nM (inactive) | GI50 (NCI-H522): > 100000 nM (inactive) | GI50 (HCC 2998): > 100000 nM (inactive) | GI50 (A549): > 100000 nM (inactive) | GI50 (EKVX): > 100000 nM (inactive) | GI50 (SN12C): > 100000 nM (inactive) | GI50 (COLO 205): > 100000 nM (inactive) | GI50 (SW-620): > 100000 nM (inactive) | GI50 (LXFL 529): > 100000 nM (inactive) | GI50 (UACC-62): > 100000 nM (inactive) | GI50 (K562): > 100000 nM (inactive) | GI50 (KM12): > 100000 nM (inactive) | GI50 (DLD-1): > 100000 nM (inactive) | GI50 (DMS-273): > 100000 nM (inactive)

C=C1C2C[C@@H]3OC4CC5O[C@]6(CC5OC4C(C)C3OC(=O)CC3CC[C@@H]4OC5C7OC8C[C@](CCC9CC(=C)[C@H](CCC(C[C@H]1C)O2)O9)(OC7C4O3)O[C@@H]85)C[C@@H]1O[C@@]2(CC(C)[C@@H]3OC(CC(=O)CCO)C(O)C[C@@H]3O2)CC(C)[C@@H]1O6 (some centres undefined)
GI50 (UO-31): < 1 nM (active) | GI50 (SNB-78): 1.57 nM (active) | GI50 (SF-539): < 1 nM (active) | GI50 (OVCAR-5): < 1 nM (active) | GI50 (HOP-92): < 1 nM (active) | GI50 (NCI-H23): < 1 nM (active) | GI50 (MOLT-4): < 1 nM (active) | GI50 (OVCAR-4): < 1 nM (active) | GI50 (HCT-15): < 1 nM | GI50 (786-0): < 1 nM (active) | GI50 (NCI-H460): < 1 nM (active) | GI50 (OVCAR-8): < 1 nM (active) | GI50 (SNB-19): < 1 nM (active) | GI50 (SK-MEL-2): < 1 nM (active) | GI50 (M14): < 1 nM (active) | GI50 (SK-MEL-5): < 1 nM (active) | GI50 (IGROV-1): < 1 nM (active) | GI50 (CAKI-1): < 1 nM (active) | GI50 (KM-20L2): < 1 nM (active) | GI50 (SF-268): < 1 nM (active) | GI50 (OVCAR-3): < 1 nM (active) | GI50 (UACC-257): < 1 nM (active) | GI50 (SK-OV-3): < 1 nM (active) | GI50 (ACHN): < 1 nM (active) | GI50 (U-251): < 1 nM (active) | GI50 (HCT-116): < 1 nM (active) | GI50 (HOP-62): < 1 nM (active) | GI50 (SF-295): < 1 nM (active) | GI50 (NCI-H226): < 1 nM (active) | GI50 (SR): < 1 nM (active) | GI50 (CCRF-CEM): < 1 nM (active) | GI50 (Malme-3M): < 1 nM (active) | GI50 (LOX IMVI): < 1 nM (active) | GI50 (NCI-H522): < 1 nM (active) | GI50 (HCC 2998): < 1 nM (active) | GI50 (A549): < 1 nM (active) | GI50 (XF498): < 1 nM (active) | GI50 (SN12C): < 1 nM (active) | GI50 (COLO 205): < 1 nM (active) | GI50 (SW-620): < 1 nM (active) | GI50 (LXFL 529): < 1 nM (active) | GI50 (UACC-62): < 1 nM (active) | GI50 (K562): < 1 nM (active) | GI50 (KM12): < 1 nM (active) | GI50 (DLD-1): < 1 nM (active) | GI50 (DMS-273): < 1 nM (active)

CCc1ccc(NCc2cc(OC)c(OC)c(OC)c2)cc1
GI50 (DMS-114): 457 nM (active) | GI50 (T47D): 302 nM (active) | GI50 (OVCAR-5): 3020 nM (inactive) | GI50 (M19-MEL): 413 nM (active) | GI50 (HOP-92): 1240 nM (inactive) | GI50 (NCI-H23): 611 nM (active) | GI50 (MOLT-4): 290 nM (active) | GI50 (OVCAR-4): 18200 nM (inactive) | GI50 (RXF 393): 211 nM (active) | GI50 (Hs-578T): 261 nM (active) | GI50 (HCT-15): 164 nM | GI50 (HT-29): 176 nM (active) | GI50 (SNB-19): 522 nM (active) | GI50 (HL-60): 56 nM (active) | GI50 (BT-549): < 10 nM (active) | GI50 (DU-145): 716 nM (active) | GI50 (RPMI-8226): 367 nM (active) | GI50 (KM-20L2): 267 nM (active) | GI50 (OVCAR-3): 211 nM (active) | GI50 (ACHN): 2240 nM (inactive) | GI50 (HCT-116): 99.8 nM (active) | GI50 (HOP-62): 532 nM (active) | GI50 (SF-295): 197 nM (active) | GI50 (NCI-H226): 3300 nM (inactive) | GI50 (SR): < 28.2 nM (active) | GI50 (CCRF-CEM): 284 nM (active) | GI50 (Malme-3M): 232 nM (active) | GI50 (NCI-H522): 186 nM (active) | GI50 (EKVX): 4200 nM (inactive) | GI50 (XF498): 933 nM (active) | GI50 (NCI/ADR-RES): 61.1 nM (active) | GI50 (K562): 84.5 nM (active) | GI50 (KM12): 73.8 nM (active) | GI50 (PC-3): 305 nM (active) | GI50 (DLD-1): 492 nM (active)
